We go through 13 compounds from patent US7078209B2, “CAK inhibitors and uses thereof” (Vertex Pharmaceuticals Incorporated, priority 2001, dated 2006).

This test has as its target CDK activating kinase (CAK) from Candida albicans (Candida albicans, UniProt A0A1D8PH53). The experiment in a line: Candida albicans CAK kinase assay: phosphorylation of human CDK2 with 33P labeled ATP. The settings on record: 2 nM CAK, 0.3 μM CDK2·FSBA, 10 μM ATP, room temperature, pH 7.5. It counts as biochemical. The method, then:
Activity of CDK activating kinase (CAK) from Candida albicans was measured by following the phosphorylation of human cyclin dependent kinase 2 (CDK 2) with ^33P labeled ATP. Reactions were carried out at room temperature in 100 mM HEPES, pH 7.5, 1 mM MgCl2, 100 mM NaCl and 1 mM DTT. Final concentrations of CAK and CDK2 were 2 nM and 300 nM, respectively. The CDK-2 substrate was inactivated with 5′ fluorosulfonylbenzoyladenosine (FSBA) to oblate its intrinsic ATPase activity. Test compounds in DMSO (final concentrations 30 μM, 1.5% DMSO) were first incubated with CAK and CDK2 for 40 minutes, then the reaction initiated by addition of ^33P ATP (final concentration 10 μM, specific activity=[…], NEN, Boston, Mass.). The reaction was allowed to proceed for 40 minutes and quenched by addition of 10% TCA containing 250 mM ATP. The quenched reaction was harvested onto GF/C glass fiber filter plates (Packard, Meriden, Conn.) using a Tomtec 9600 cell harvester (Tomtec, Hamden, Conn.), washed with 5% TCA and water. The plates were then treated with 50 μl of scintillation fluid and counted using a Packard top count (Packard, Meriden, Conn.). Ki values for inhibitory compounds were determined using the same assay at a series of compound concentrations.
• 100 mM HEPES, pH 7.5 • 1 mM MgCl2 • 100 mM NaCl • 1 mM DTT • 2 nM CAK • 0.3 μM CDK2·FSBA • 1.5% DMSO (compounds are dissolved in DMSO) • 10 μM ATP (specific activity·1.25e9 μCi/mol ATP)

Structures are written as SMILES.

Chain of CDK activating kinase (CAK) from Candida albicans (A0A1D8PH53 entry or part of it): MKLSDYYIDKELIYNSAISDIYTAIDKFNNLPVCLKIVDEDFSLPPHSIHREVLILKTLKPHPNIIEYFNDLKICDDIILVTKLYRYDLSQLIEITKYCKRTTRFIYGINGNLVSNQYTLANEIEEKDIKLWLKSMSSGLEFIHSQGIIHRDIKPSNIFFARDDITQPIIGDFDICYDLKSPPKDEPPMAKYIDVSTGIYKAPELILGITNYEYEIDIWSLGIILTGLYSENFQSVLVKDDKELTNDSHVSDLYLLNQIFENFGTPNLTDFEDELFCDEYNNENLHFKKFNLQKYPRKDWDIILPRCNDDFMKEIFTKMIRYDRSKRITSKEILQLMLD

Broadly, the Ki is a dissociation constant, usually derived from enzyme kinetics or from competition with a known ligand. A higher Ki goes with weaker binding. As to `N#Cc1c(N)c(C(=O)c2cccc(I)c2)n2ccccc12` [Compound 1], the affinity, expressed as Ki, was 60 nM. This lies in the double-digit nanomolar range.
In turn, `COc1cccc(C(=O)c2c(N)c(C#N)c3ccccn23)c1` [Compound 2] displayed a Ki of 210 nM.
Under `N#Cc1c(N)c(C(=O)c2cccc(Cl)c2)n2ccccc12` [Compound 3] stands 290 nM.
For `N#Cc1c(N)c(C(=O)c2ccc3ccccc3c2)n2ccccc12` [Compound 4] the value was 540 nM.
Under `N#Cc1c(N)c(C(=O)c2ccc(Cl)c(Cl)c2)n2ccccc12` [Compound 5] stands 640 nM; under `N#Cc1c(N)c(C(=O)c2ccc(F)cc2)n2ccccc12` [Compound 6], 880 nM; under `COc1ccccc1C(=O)c1c(N)c(C#N)c2ccccn12` [Compound 7], 940 nM.
The compound `N#Cc1c(N)c(C(=O)c2ccc(F)c(F)c2)n2ccccc12` [Compound 8] yielded a Ki of 1000 nM.
For `N#Cc1c(N)c(C(=O)c2ccc(Cl)cc2)n2ccccc12` [Compound 9] the value was 1300 nM; for `N#Cc1c(N)c(C(=O)c2ccc(OC(F)(F)F)cc2)n2ccccc12` [Compound 10], 1500 nM.
Under `N#Cc1c(N)c(C(=O)c2ccc(Br)cc2)n2ccccc12` [Compound 11] stands 1900 nM; under `COc1ccc(C(=O)c2c(N)c(C#N)c3ccccn23)cc1` [Compound 12], 2400 nM.
In turn, `CC(=O)Nc1c(C#N)c2ccccn2c1C(=O)c1ccc(F)cc1` [Compound 13] had an inhibition constant Ki above 30000 nM.
